Active and inactive are the calls of the source. No cut-off for these calls is given here.
Key:
BaF3 [1] = test: Antiproliferative activity against mouse BaF3 cells stably expressing CCDC6-RET-G810C mutant incubated for 72 hrs by CCK-8 assay; format: functional, cell-based; conditions: BaF3, 72 h
[2] = Induction of apoptosis in mouse BaF3 cells stably expressing KIF5B-RET-G810C mutant assessed as early apoptotic cells at 300 nM measured after 48 hrs by Annexin V-FITC/7-AAD staining based flow cytometric analysis (reference value: 8.57 %); format: functional
[3] = Induction of apoptosis in mouse BaF3 cells stably expressing KIF5B-RET-G810C mutant assessed as viable cells at 100 nM measured after 48 hrs by Annexin V-FITC/7-AAD staining based flow cytometric analysis (reference value: 86.58 %); format: functional; conditions: read-out: Activity
[4] = Induction of apoptosis in mouse BaF3 cells stably expressing wildtype KIF5B-RET fusion protein assessed as late apoptotic cells at 11.1 nM measured after 48 hrs by Annexin V-FITC/7-AAD staining based flow cytometric analysis (reference value: 1.03 %); format: functional
[5] = Effect on RET protein level in mouse BaF3 cells stably expressing KIF5B-RET-G810C mutant assessed as fold change at 100 nM measured after 6 hrs by Western blot analysis (reference value: 1); format: functional
[6] = Effect on RET protein level in mouse BaF3 cells stably expressing KIF5B-RET-G810R mutant assessed as fold change at 300 nM measured after 6 hrs by Western blot analysis (reference value: 1); format: functional
BaF3 [7] = test: PROTAC activity at CRBN/CK1alpha in mouse BaF3 cells overexpressing KIF5B-RET assessed as induction of […] at 10 to 1000 nM incubated for 6 hrs by Western blot analysis; format: cell-based; conditions: dose 10-1000 nM
[8] = Induction of apoptosis in mouse BaF3 cells stably expressing KIF5B-RET-G810C mutant assessed as viable cells at 33.3 nM measured after 48 hrs by Annexin V-FITC/7-AAD staining based flow cytometric analysis (reference value: 86.58 %); format: functional; conditions: read-out: Activity
[9] = Effect on Shc protein level in mouse BaF3 cells stably expressing KIF5B-RET-G810R mutant assessed as fold change at 33.3 nM measured after 6 hrs by Western blot analysis (reference value: 1); format: functional
BaF3 [10] = test: Antiproliferative activity against mouse BaF3 cells stably expressing KIF5B-RET-V804M mutant incubated for 72 hrs by CCK-8 assay; format: functional, cell-based; conditions: BaF3, 72 h
[11] = Induction of apoptosis in mouse BaF3 cells stably expressing KIF5B-RET-G810C mutant assessed as early apoptotic cells at 900 nM measured after 48 hrs by Annexin V-FITC/7-AAD staining based flow cytometric analysis (reference value: 8.57 %); format: functional
BaF3 [12] = test: PROTAC activity at CRBN/KIF5B-RET (unknown origin) expressed in mouse BaF3 cells assessed as induction of RET degradation at 1000 nM measured after 6 hrs by Western blot analysis relative to control; format: cell-based
[13] = target: Proto-oncogene tyrosine-protein kinase receptor Ret (Homo sapiens, UniProt P07949); test: Inhibition of wildtype RET (unknown origin) in presence of ATP by FRET-based Z'-Lyte assay
Proto-oncogene tyrosine-protein kinase receptor Ret, sequence (P07949 whole entry): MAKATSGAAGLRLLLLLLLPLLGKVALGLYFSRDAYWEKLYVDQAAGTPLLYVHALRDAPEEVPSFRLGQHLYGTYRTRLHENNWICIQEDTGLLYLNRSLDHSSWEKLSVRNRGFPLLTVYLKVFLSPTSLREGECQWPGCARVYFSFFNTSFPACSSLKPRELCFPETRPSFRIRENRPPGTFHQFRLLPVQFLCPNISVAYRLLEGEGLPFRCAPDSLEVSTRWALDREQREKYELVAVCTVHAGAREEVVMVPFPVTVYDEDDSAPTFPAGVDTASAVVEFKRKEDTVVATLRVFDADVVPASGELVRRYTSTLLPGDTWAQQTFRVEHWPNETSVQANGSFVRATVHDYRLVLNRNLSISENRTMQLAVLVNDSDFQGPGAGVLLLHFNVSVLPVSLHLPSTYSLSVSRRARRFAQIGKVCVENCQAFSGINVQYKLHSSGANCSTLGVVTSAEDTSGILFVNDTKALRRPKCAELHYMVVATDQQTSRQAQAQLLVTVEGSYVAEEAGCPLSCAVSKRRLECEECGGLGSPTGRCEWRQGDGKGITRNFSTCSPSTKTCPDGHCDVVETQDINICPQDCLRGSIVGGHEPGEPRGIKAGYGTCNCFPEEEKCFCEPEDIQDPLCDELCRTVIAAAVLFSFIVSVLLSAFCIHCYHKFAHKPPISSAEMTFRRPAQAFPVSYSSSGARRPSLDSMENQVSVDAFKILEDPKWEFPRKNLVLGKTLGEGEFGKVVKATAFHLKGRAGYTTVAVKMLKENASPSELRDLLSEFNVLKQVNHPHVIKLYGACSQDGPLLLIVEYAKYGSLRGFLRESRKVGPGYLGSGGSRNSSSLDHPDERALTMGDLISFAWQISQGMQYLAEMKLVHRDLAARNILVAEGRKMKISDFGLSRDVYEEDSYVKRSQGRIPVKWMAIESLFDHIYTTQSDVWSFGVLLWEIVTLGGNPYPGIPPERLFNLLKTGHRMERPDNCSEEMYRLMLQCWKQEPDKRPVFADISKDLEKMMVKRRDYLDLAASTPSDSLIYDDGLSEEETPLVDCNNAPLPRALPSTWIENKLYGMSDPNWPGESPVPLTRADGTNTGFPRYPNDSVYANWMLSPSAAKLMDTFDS

[14] = Induction of apoptosis in mouse BaF3 cells stably expressing KIF5B-RET-G810C mutant assessed as early apoptotic cells at 100 nM measured after 48 hrs by Annexin V-FITC/7-AAD staining based flow cytometric analysis (reference value: 8.57 %); format: functional
[15] = Induction of apoptosis in mouse BaF3 cells stably expressing KIF5B-RET-G810C mutant assessed as early apoptotic cells at 33.3 nM measured after 48 hrs by Annexin V-FITC/7-AAD staining based flow cytometric analysis (reference value: 8.57 %); format: functional
[16] = Effect on RET protein level in mouse BaF3 cells stably expressing KIF5B-RET-G810R mutant assessed as fold change at 100 nM measured after 6 hrs by Western blot analysis (reference value: 1); format: functional
[17] = Induction of apoptosis in mouse BaF3 cells stably expressing wildtype KIF5B-RET fusion protein assessed as early apoptotic cells at 11.1 nM measured after 48 hrs by Annexin V-FITC/7-AAD staining based flow cytometric analysis (reference value: 9.92 %); format: functional
BaF3 [18] = test: PROTAC activity at CRBN/KIF5B-RET (unknown origin) expressed in mouse BaF3 cells assessed as induction of RET degradation at 10 nM measured after 6 hrs by Western blot analysis relative to control; format: cell-based
[19] = Effect on Shc protein level in mouse BaF3 cells stably expressing KIF5B-RET-V804M mutant assessed as fold change at 100 nM measured after 6 hrs by Western blot analysis (reference value: 1); format: functional
[20] = PROTAC activity at CRBN/KIF5B-RET (unknown origin) expressed in mouse BaF3 cells assessed as induction of RET degradation measured after 6 hrs by Western blot analysis; conditions: Homo sapiens, BaF3, 6 h
[21] = Potency index, ratio of selpercatinib IC50 to test compound IC50 for antiproliferative activity against mouse BaF3 cells stably expressing KIF5B-RET-G810S mutant incubated for 72 hrs by CCK-8 assay; format: functional
[22] = Effect on RET protein level in mouse BaF3 cells stably expressing KIF5B-RET-G810R mutant assessed as fold change at 11.1 nM measured after 6 hrs by Western blot analysis (reference value: 1); format: functional
BaF3 [23] = test: Inhibition of RET (unknown origin) phosphorylation in mouse BaF3 cells stably expressing KIF5B-RET-G810R mutant at 333.3 to 3000 nM measured after 6 hrs by Western blot analysis; format: cell-based; conditions: Homo sapiens, dose 333.3-3000 nM
[24] = Induction of apoptosis in mouse BaF3 cells stably expressing wildtype KIF5B-RET fusion protein assessed as necrotic cells at 100 nM measured after 48 hrs by Annexin V-FITC/7-AAD staining based flow cytometric analysis (reference value: 2.40 %); format: functional
[25] = Effect on RET protein level in mouse BaF3 cells stably expressing wildtype KIF5B-RET assessed as fold change at 11.1 nM measured after 6 hrs by Western blot analysis (reference value: 1); format: functional
[26] = Effect on RET protein level in mouse BaF3 cells stably expressing KIF5B-RET-V804M mutant assessed as fold change at 300 nM measured after 6 hrs by Western blot analysis (reference value: 1); format: functional
[27] = Induction of apoptosis in mouse BaF3 cells stably expressing wildtype KIF5B-RET fusion protein assessed as necrotic cells at 11.1 nM measured after 48 hrs by Annexin V-FITC/7-AAD staining based flow cytometric analysis (reference value: 2.40 %); format: functional
[28] = Effect on RET protein level in mouse BaF3 cells stably expressing KIF5B-RET-G810C mutant assessed as fold change at 33.3 nM measured after 6 hrs by Western blot analysis (reference value: 1); format: functional
[29] = Induction of apoptosis in mouse BaF3 cells stably expressing KIF5B-RET-G810C mutant assessed as late apoptotic cells at 300 nM measured after 48 hrs by Annexin V-FITC/7-AAD staining based flow cytometric analysis (reference value: 1.96 %); format: functional

Work on `COc1ccc(CN2C3CC2CN(c2ccc(-c4cc(-c5cnn(C6CCN(CCCCCC#Cc7cccc8c7CN(C7CCC(=O)NC7=O)C8=O)CC6)c5)cn5ncc(C#N)c45)cn2)C3)cn1` (centres undefined) yielded an IC50 (BaF3 [1]) of 40 nM, an Activity [2] of 31.81% and a viability at 0.1 µM [3] of 75.4%. For the same compound, the Activity [4] was 1.84%, the “fold change (FC)” value [5] was 0.4 and the “fold change (FC)” value [6] was 0.6. For the same compound, the Activity (BaF3 [7]) was “inactive”, the viability at 0.0333 µM [8] was 85.5% and the “fold change (FC)” value [9] was 0.9. For the same compound, the IC50 (BaF3 [10]) was 40 nM, the Activity [11] was 54.08% and the Activity (BaF3 [12]) was 74%. For the same compound, the IC50 [13] was 5.7 nM, the Activity [14] was 19.9% and the Activity [15] was 10.15%. For the same compound, the “fold change (FC)” value [16] was 0.9, the Activity [17] was 11.31% and the Activity (BaF3 [18]) was 60%. The “fold change (FC)” value [19] was 0.9, the DC50 [20] was 4.7 nM and the “Ratio IC50” value [21] was 6.3. The “fold change (FC)” value [22] was 1, the inhibition (BaF3 [23]) was “Active” and the Activity [24] was 0.52%. The “fold change (FC)” value [25] was 0.5, the “fold change (FC)” value [26] was 0.1 and the Activity [27] was 3%. The “fold change (FC)” value [28] was 0.6 and the Activity [29] was 2.91%.

Reference: ChEMBL document CHEMBL6087474, “Discovery of an Efficacious RET PROTAC Degrader with Enhanced Antiproliferative Activity against Resistant Cancer Cells Harboring RET Solvent-Front Mutations” (J Med Chem, 2025)
